Reference: patent US10004701B2, “Methods and compositions for treating infection” (UNIVERSITY OF ROCHESTER, priority 2012, dated 2018)
Where a name gives a salt, the structure may show the parent alone. Read-outs that look alike come from different tables or passages of the source.

How the values were obtained:
Experiment in all cases: AK assay 384-well format, Prestwick library screening
[1] = system: S. aureus strain USA300-0114; format: cell-based, Staphylococcus aureus; conditions: Staphylococcus aureus, USA300, 3 h, 50 μM final drug concentration
K. pneumoniae = format: cell-based, Klebsiella pneumoniae; conditions: Klebsiella pneumoniae, 3 h, 50 μM final drug concentration
E. faecium = format: cell-based, Enterococcus faecium; conditions: Enterococcus faecium, 3 h, 50 μM final drug concentration
E. coli = format: cell-based, Escherichia coli; conditions: Escherichia coli, 3 h, 50 μM final drug concentration
P. aeruginosa = format: cell-based, Pseudomonas aeruginosa; conditions: Pseudomonas aeruginosa, 3 h, 50 μM final drug concentration
E. cloacae = format: cell-based, Enterobacter cloacae; conditions: Enterobacter cloacae, 3 h, 50 μM final drug concentration
[2] = system: A. baumannii strain 98-37-09; format: cell-based, Acinetobacter baumannii; conditions: Acinetobacter baumannii, 983709, 3 h, 50 μM final drug concentration
[3] = planktonic S. aureus, 384-well, cutoff for positive-scoring molecules 3-fold increase, read-out: AK-based Prestwick Library Screening Results: S. aureus (increase in extracellular AK activity)
[4] = planktonic K. pneumoniae, 384-well, cutoff for positive-scoring molecules 3-fold increase, read-out: AK-based Prestwick Library Screening Results: K. pneumoniae (increase in extracellular AK activity)
[5] = planktonic E. faecium, 384-well, cutoff for positive-scoring molecules 3-fold increase, read-out: AK-based Prestwick Library Screening Results: E. faecium (increase in extracellular AK activity)
[6] = planktonic E. coli, 384-well, cutoff for positive-scoring molecules 3-fold increase, read-out: AK-based Prestwick Library Screening Results: E. coli (increase in extracellular AK activity)
[7] = planktonic P. aeruginosa, 384-well, cutoff for positive-scoring molecules 3-fold increase, read-out: AK-based Prestwick Library Screening Results: P. aeruginosa (increase in extracellular AK activity)
[8] = planktonic E. cloacae, 384-well, cutoff for positive-scoring molecules 3-fold increase, read-out: AK-based Prestwick Library Screening Results: E. cloacae (increase in extracellular AK activity)
[9] = planktonic A. baumannii, 384-well, cutoff for positive-scoring molecules 3-fold increase, read-out: AK-based Prestwick Library Screening Results: A. baumannii (increase in extracellular AK activity)
[10] = cutoff for positive-scoring molecules 3-fold increase, read-out: AK-based Prestwick Library Screening Results, S. aureus (fold increase in extracellular AK activity)
[11] = cutoff for positive-scoring molecules 3-fold increase, read-out: AK-based Prestwick Library Screening Results, K. pneumoniae (fold increase in extracellular AK activity)
[12] = cutoff for positive-scoring molecules 3-fold increase, read-out: AK-based Prestwick Library Screening Results, E. faecium (fold increase in extracellular AK activity)
[13] = cutoff for positive-scoring molecules 3-fold increase, read-out: AK-based Prestwick Library Screening Results, E. coli (fold increase in extracellular AK activity)
[14] = cutoff for positive-scoring molecules 3-fold increase, read-out: AK-based Prestwick Library Screening Results, P. aeruginosa (fold increase in extracellular AK activity)
[15] = cutoff for positive-scoring molecules 3-fold increase, read-out: AK-based Prestwick Library Screening Results, E. cloacae (fold increase in extracellular AK activity)
[16] = cutoff for positive-scoring molecules 3-fold increase, read-out: AK-based Prestwick Library Screening Results, A. baumannii (fold increase in extracellular AK activity)
[17] = planktonic S. aureus, positive cutoff 3-fold increase, read-out: AK-based Prestwick library screening result, S. aureus (fold increase in extracellular AK activity)
[18] = planktonic K. pneumoniae, positive cutoff 3-fold increase, read-out: AK-based Prestwick library screening result, K. pneumoniae (fold increase in extracellular AK activity)
[19] = planktonic E. faecium, positive cutoff 3-fold increase, read-out: AK-based Prestwick library screening result, E. faecium (fold increase in extracellular AK activity)
[20] = planktonic E. coli, positive cutoff 3-fold increase, read-out: AK-based Prestwick library screening result, E. coli (fold increase in extracellular AK activity)
[21] = planktonic P. aeruginosa, positive cutoff 3-fold increase, read-out: AK-based Prestwick library screening result, P. aeruginosa (fold increase in extracellular AK activity)
[22] = planktonic E. cloacae, positive cutoff 3-fold increase, read-out: AK-based Prestwick library screening result, E. cloacae (fold increase in extracellular AK activity)
[23] = planktonic A. baumannii, positive cutoff 3-fold increase, read-out: AK-based Prestwick library screening result, A. baumannii (fold increase in extracellular AK activity)

SMILES: CCN(CC)CCCC(C)Nc1c2ccc(Cl)cc2nc2ccc(OC)cc12 (stereo not drawn) [Quinacrine dihydrochloride dihydrate]
- fold induction at 50 µM [1, 3]: 1.2
- fold induction at 50 µM (K. pneumoniae; [4]): 1
- fold induction at 50 µM (E. faecium; [5]): 1
- fold induction at 50 µM (E. coli; [6]): 1.2
- fold induction at 50 µM (P. aeruginosa; [7]): 0.9
- fold induction at 50 µM (E. cloacae; [8]): 1.4
- fold induction at 50 µM [2, 9]: 1.3

SMILES: CCOC(=O)[C@H](CCc1ccccc1)N[C@@H](C)C(=O)N1Cc2ccccc2C[C@H]1C(=O)O [Quinapril HCl]
- fold induction at 50 µM [1, 10]: 1.2
- fold induction at 50 µM (K. pneumoniae; [11]): 1
- fold induction at 50 µM (E. faecium; [12]): 1.1
- fold induction at 50 µM (E. coli; [13]): 1.2
- fold induction at 50 µM (P. aeruginosa; [14]): 1.2
- fold induction at 50 µM (E. cloacae; [15]): 1.6
- fold induction at 50 µM [2, 16]: 1.2

SMILES: CCC1NC(=O)c2cc(S(N)(=O)=O)c(Cl)cc2N1 (stereo not drawn) [Quinethazone]
- fold induction at 50 µM [1, 10]: 0.4
- fold induction at 50 µM (K. pneumoniae; [11]): 0.6
- fold induction at 50 µM (E. faecium; [12]): 0.9
- fold induction at 50 µM (E. coli; [13]): 0.6
- fold induction at 50 µM (P. aeruginosa; [14]): 0.5
- fold induction at 50 µM (E. cloacae; [15]): 0.4
- fold induction at 50 µM [2, 16]: 0.5

SMILES: O=C(O)[C@]1(O)C[C@@H](O)[C@@H](O)[C@H](O)C1 [Quinic acid]
- fold induction at 50 µM [1, 17]: 1.2
- fold induction at 50 µM (K. pneumoniae; [18]): 1.3
- fold induction at 50 µM (E. faecium; [19]): 1
- fold induction at 50 µM (E. coli; [20]): 1.2
- fold induction at 50 µM (P. aeruginosa; [21]): 1.1
- fold induction at 50 µM (E. cloacae; [22]): 1.2
- fold induction at 50 µM [2, 23]: 1.4

SMILES: CC(=O)SCC(Cc1ccccc1)C(=O)NCC(=O)OCc1ccccc1 (stereo not drawn) [Racecadotril]
- fold induction at 50 µM ([1]; planktonic, cutoff for positive 3-fold increase, read-out: AK-based Prestwick Library Screening Results, S. aureus (fold increase in extracellular AK activity)): 1.9
- fold induction at 50 µM (K. pneumoniae; planktonic, cutoff for positive 3-fold increase, read-out: AK-based Prestwick Library Screening Results, K. pneumoniae (fold increase in extracellular AK activity)): 1.1
- fold induction at 50 µM (E. faecium; planktonic, cutoff for positive 3-fold increase, read-out: AK-based Prestwick Library Screening Results, E. faecium (fold increase in extracellular AK activity)): 1
- fold induction at 50 µM (E. coli; planktonic, cutoff for positive 3-fold increase, read-out: AK-based Prestwick Library Screening Results, E. coli (fold increase in extracellular AK activity)): 1.2
- fold induction at 50 µM (P. aeruginosa; planktonic, cutoff for positive 3-fold increase, read-out: AK-based Prestwick Library Screening Results, P. aeruginosa (fold increase in extracellular AK activity)): 1.2
- fold induction at 50 µM (E. cloacae; planktonic, cutoff for positive 3-fold increase, read-out: AK-based Prestwick Library Screening Results, E. cloacae (fold increase in extracellular AK activity)): 1.5
- fold induction at 50 µM ([2]; planktonic, cutoff for positive 3-fold increase, read-out: AK-based Prestwick Library Screening Results, A. baumannii (fold increase in extracellular AK activity)): 1.3

SMILES: O=C(c1ccc(OCCN2CCCCC2)cc1)c1c(-c2ccc(O)cc2)sc2cc(O)ccc12 [Raloxifene hydrochloride]
- fold induction at 50 µM [1, 10]: 1.2
- fold induction at 50 µM (K. pneumoniae; [11]): 1.1
- fold induction at 50 µM (E. faecium; [12]): 0.9
- fold induction at 50 µM (E. coli; […], read-out: AK-based Prestwick Library Screening Results, E. coli (fold increase in extracellular AK activity)): 1.5
- fold induction at 50 µM (P. aeruginosa; [14]): 1.2
- fold induction at 50 µM (E. cloacae; [15]): 1.3
- fold induction at 50 µM [2, 16]: 1.5

SMILES: CCOC(=O)[C@H](CCc1ccccc1)N[C@@H](C)C(=O)N1[C@H](C(=O)O)C[C@@H]2CCC[C@@H]21 [Ramipril]
- fold induction at 50 µM [1, 17]: 1.2
- fold induction at 50 µM (K. pneumoniae; [18]): 1
- fold induction at 50 µM (E. faecium; [19]): 1
- fold induction at 50 µM (E. coli; [20]): 1.1
- fold induction at 50 µM (P. aeruginosa; [21]): 1.2
- fold induction at 50 µM (E. cloacae; [22]): 1.1
- fold induction at 50 µM [2, 23]: 1.3

SMILES: CNC(=C[N+](=O)[O-])NCCSCc1ccc(CN(C)C)o1 [Ranitidine hydrochloride]
- fold induction at 50 µM [1, 3]: 1.2
- fold induction at 50 µM (K. pneumoniae; [4]): 0.9
- fold induction at 50 µM (E. faecium; [5]): 1.1
- fold induction at 50 µM (E. coli; [6]): 1.4
- fold induction at 50 µM (P. aeruginosa; [7]): 1.3
- fold induction at 50 µM (E. cloacae; [8]): 1.5
- fold induction at 50 µM [2, 9]: 1.1

SMILES: COc1ccccc1OCC(O)CN1CCN(CC(=O)Nc2c(C)cccc2C)CC1 (stereo not drawn) [Ranolazine]
- fold induction at 50 µM [1, 17]: 1
- fold induction at 50 µM (K. pneumoniae; [18]): 0.9
- fold induction at 50 µM (E. faecium; [19]): 0.9
- fold induction at 50 µM (E. coli; [20]): 1.2
- fold induction at 50 µM (P. aeruginosa; [21]): 1
- fold induction at 50 µM (E. cloacae; [22]): 1.4
- fold induction at 50 µM [2, 23]: 1.2

SMILES: COC(=O)[C@H]1[C@H]2C[C@H]3c4[nH]c5ccccc5c4CCN3C[C@H]2CC[C@@H]1O [Rauwolscine hydrochloride]
- fold induction at 50 µM ([1]; planktonic S. aureus, cutoff for positive-scoring molecules 3-fold increase, read-out: AK-based Prestwick Library Screening Results, S. aureus (increase in extracellular AK activity)): 0.7
- fold induction at 50 µM (K. pneumoniae; planktonic K. pneumoniae, cutoff for positive-scoring molecules 3-fold increase, read-out: AK-based Prestwick Library Screening Results, K. pneumoniae (increase in extracellular AK activity)): 0.6
- fold induction at 50 µM (E. faecium; planktonic E. faecium, cutoff for positive-scoring molecules 3-fold increase, read-out: AK-based Prestwick Library Screening Results, E. faecium (increase in extracellular AK activity)): 1
- fold induction at 50 µM (E. coli; planktonic E. coli, cutoff for positive-scoring molecules 3-fold increase, read-out: AK-based Prestwick Library Screening Results, E. coli (increase in extracellular AK activity)): 0.7
- fold induction at 50 µM (P. aeruginosa; planktonic P. aeruginosa, cutoff for positive-scoring molecules 3-fold increase, read-out: AK-based Prestwick Library Screening Results, P. aeruginosa (increase in extracellular AK activity)): 0.6
- fold induction at 50 µM (E. cloacae; planktonic E. cloacae, cutoff for positive-scoring molecules 3-fold increase, read-out: AK-based Prestwick Library Screening Results, E. cloacae (increase in extracellular AK activity)): 0.8
- fold induction at 50 µM ([2]; planktonic A. baumannii, cutoff for positive-scoring molecules 3-fold increase, read-out: AK-based Prestwick Library Screening Results, A. baumannii (increase in extracellular AK activity)): 0.8

SMILES: CCN1CCC[C@H]1CNC(=O)c1c(OC)ccc(Br)c1OC [Remoxipride Hydrochloride]
- fold induction at 50 µM [1, 10]: 0.6
- fold induction at 50 µM (K. pneumoniae; [11]): 0.6
- fold induction at 50 µM (E. faecium; [12]): 0.9
- fold induction at 50 µM (E. coli; [13]): 0.7
- fold induction at 50 µM (P. aeruginosa; [14]): 0.7
- fold induction at 50 µM (E. cloacae; [15]): 0.8
- fold induction at 50 µM [2, 16]: 0.7

SMILES: CCOc1cc(CC(=O)N[C@@H](CC(C)C)c2ccccc2N2CCCCC2)ccc1C(=O)O [Repaglinide]
- fold induction at 50 µM [1, 10]: 0.3
- fold induction at 50 µM (K. pneumoniae; [11]): 0.4
- fold induction at 50 µM (E. faecium; [12]): 0.9
- fold induction at 50 µM (E. coli; [13]): 0.4
- fold induction at 50 µM (P. aeruginosa; [14]): 0.4
- fold induction at 50 µM (E. cloacae; [15]): 0.4
- fold induction at 50 µM [2, 16]: 0.4
